The subject of assay [1] is T47D (PI3Kα H1047R mutant) cells. The assay can be described thus: CellTiter-Glo 2.0 luminescent cell viability assay, 72 hours, T47D cells. Format: cell-based. The conditions noted are these: Homo sapiens, T47D, 72 h, T47D (PI3Kα H1047R mutant) cells, CellTiter-Glo, approximately 72 hours; read-out: T47D (H1047R mutant) Viability IC50. The procedure, abridged:
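Viability was measured by CellTiter-Glo 2.0 luminescence after approximately 72 h of compound exposure at 37° C. Plating was 1000 cells per well the day before dosing, with ten 1:4 dilutions from a 10 µM top concentration. Values as percent of vehicle were fitted by variable-slope log(inhibitor) regression to give IC50.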

The subject of assay [2] is SKBR3 (PI3Kα wild type) cells. In words: CellTiter-Glo 2.0 luminescent cell viability assay, 72 hours, SKBR3 cells. Format: cell-based. The conditions noted are these: Homo sapiens, SK-BR-3, 72 h, SKBR3 (PI3Kα wild type) cells, CellTiter-Glo, approximately 72 hours; read-out: SKBR3 (WT) Viability IC50. The procedure, abridged: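 Viability measured via CTG luminescence following roughly 72 hours of compound exposure at 37° C. Dosing used a 10 um starting concentration diluted 1:4 over 10 points; percent-of-vehicle data fitted with a variable-slope four-parameter model for IC50.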
(In general: Cellular ATP, detected with luciferase, serves as a proxy for viable cell number.)

In general, IC50 refers to the concentration that inhibits the measured activity by half.

For `Cc1cc([C@@H](C)Nc2ccccc2C(=O)O)c2nc(N3CCN(c4ccccc4C#N)C[C@H]3C)c(C)c(=O)n2c1` [Example 11-83, 2-(((R)-1-(2-((R)-4-(2-cyanophenyl)-2-methylpiperazin-1-yl)-3,7-dimethyl-4-oxo-4H-pyrido[1,2-a]pyrimidin-9-yl)ethyl)amino)benzoic acid], the half-inhibitory concentration (IC50) was 157 nM in assay [1] and greater than 10000 nM in assay [2].

Take `Cc1cc([C@@H](C)Nc2ccccc2C(=O)O)c2nc(N3CCN(c4cccc(C#N)c4)C[C@H]3C)c(C#N)c(=O)n2c1` [Example 11-84, 2-(((R)-1-(3-cyano-2-((R)-4-(3-cyanophenyl)-2-methylpiperazin-1-yl)-7-methyl-4-oxo-4H-pyrido[1,2-a]pyrimidin-9-yl)ethyl)amino)benzoic acid]: the values for the IC50 in assay [1] and in assay [2] were 139 nM and 952 nM, respectively.

In the case of `Cc1cc([C@@H](C)Nc2ccccc2C(=O)O)c2nc(N3CCN(c4cccc(C#N)c4)C[C@@H]3C)c(C#N)c(=O)n2c1` [Example 11-85, 2-(((R)-1-(3-cyano-2-((S)-4-(3-cyanophenyl)-2-methylpiperazin-1-yl)-7-methyl-4-oxo-4H-pyrido[1,2-a]pyrimidin-9-yl)ethyl)amino)benzoic acid], the half-maximal inhibitory concentration (IC50) in assay [1] is 404 nM; in assay [2], greater than 10000 nM.

`Cc1cc([C@@H](C)Nc2ccccc2C(=O)O)c2nc(N3CCN(c4cccc(C#N)c4)C[C@@H]3C)c(C)c(=O)n2c1` [Example 11-86, 2-(((R)-1-(2-((S)-4-(3-cyanophenyl)-2-methylpiperazin-1-yl)-3,7-dimethyl-4-oxo-4H-pyrido[1,2-a]pyrimidin-9-yl)ethyl)amino)benzoic acid]: the half-maximal inhibitory concentration (IC50) in assay [1] is 146 nM; in assay [2], greater than 10000 nM.

For the molecule `Cc1cc([C@@H](C)Nc2ccccc2C(=O)O)c2nc(N3CCN(c4cccc(C#N)c4)C[C@H]3C)c(C)c(=O)n2c1` [Example 11-87, 2-(((R)-1-(2-((R)-4-(3-cyanophenyl)-2-methylpiperazin-1-yl)-3,7-dimethyl-4-oxo-4H-pyrido[1,2-a]pyrimidin-9-yl)ethyl)amino)benzoic acid], the figures for the IC50 in assay [1] and in assay [2] were 156 nM and greater than 10000 nM, respectively.

Consider `Cc1cc([C@@H](C)Nc2ccc(F)c(F)c2C(=O)O)c2nc(N3CCC(F)(F)CC3)c(C#N)c(=O)n2c1` [Example 11-88, (R)-6-((1-(3-cyano-2-(4,4-difluoropiperidin-1-yl)-7-methyl-4-oxo-4H-pyrido[1,2-a]pyrimidin-9-yl)ethyl)amino)-2,3-difluorobenzoic acid], for which the IC50 was 1650 nM in assay [1] and greater than 10000 nM in assay [2].

On to `Cc1cc([C@@H](C)Nc2ccc(Cl)c(F)c2C(=O)O)c2nc(N3CCC(F)(F)CC3)c(C#N)c(=O)n2c1` [Example 11-89, (R)-3-chloro-6-((1-(3-cyano-2-(4,4-difluoropiperidin-1-yl)-7-methyl-4-oxo-4H-pyrido[1,2-a]pyrimidin-9-yl)ethyl)amino)-2-fluorobenzoic acid], for which the IC50 in assay [1] is 3150 nM; in assay [2], greater than 10000 nM.

`Cc1cc([C@@H](C)Nc2ccc(F)cc2C(=O)O)c2nc(N3CCC(F)(F)CC3)c(C#N)c(=O)n2c1` [Example 11-90, (R)-2-((1-(3-cyano-2-(4,4-difluoropiperidin-1-yl)-7-methyl-4-oxo-4H-pyrido[1,2-a]pyrimidin-9-yl)ethyl)amino)-5-fluorobenzoic acid]: the IC50 is 306 nM in assay [1] and greater than 10000 nM in assay [2].

With `Cc1cc([C@@H](C)Nc2ccc(Cl)cc2C(=O)O)c2nc(N3CCC(F)(F)CC3)c(C)c(=O)n2c1` [Example 11-91, (R)-5-chloro-2-((1-(2-(4,4-difluoropiperidin-1-yl)-3,7-dimethyl-4-oxo-4H-pyrido[1,2-a]pyrimidin-9-yl)ethyl)amino)benzoic acid], the half-inhibitory concentration (IC50) in assay [1] is 358 nM; in assay [2], greater than 10000 nM.

With `Cc1cc([C@@H](C)Nc2ccccc2C(=O)O)c2nc(N3CCC(F)(F)C[C@@H]3C)c(C)c(=O)n2c1` [Example 11-92, 2-(((R)-1-(2-((S)-4,4-difluoro-2-methylpiperidin-1-yl)-3,7-dimethyl-4-oxo-4H-pyrido[1,2-a]pyrimidin-9-yl)ethyl)amino)benzoic acid], the concentration for half-maximal inhibition (IC50) was 213 nM in assay [1] and greater than 10000 nM in assay [2].

With `Cc1cc([C@@H](C)Nc2ccccc2C(=O)O)c2nc(N3CCC(F)(F)C[C@H]3C)c(C)c(=O)n2c1` [Example 11-93, 2-(((R)-1-(2-((R)-4,4-difluoro-2-methylpiperidin-1-yl)-3,7-dimethyl-4-oxo-4H-pyrido[1,2-a]pyrimidin-9-yl)ethyl)amino)benzoic acid], the half-maximal inhibitory concentration (IC50) in assay [1] was 268 nM; in assay [2], greater than 10000 nM.

As to `Cc1cc([C@@H](C)Nc2ccccc2C(=O)O)c2nc(N3CC[C@H]3CF)c(C)c(=O)n2c1` [Example 11-94, 2-(((R)-1-(2-((S)-2-(fluoromethyl)azetidin-1-yl)-3,7-dimethyl-4-oxo-4H-pyrido[1,2-a]pyrimidin-9-yl)ethyl)amino)benzoic acid], the IC50 in assay [1] was 185 nM; in assay [2], greater than 10000 nM.

For the molecule `Cc1cc([C@@H](C)Nc2ccccc2C(=O)O)c2nc(N3CC[C@@H]3CF)c(C)c(=O)n2c1` [Example 11-95, 2-(((R)-1-(2-((R)-2-(fluoromethyl)azetidin-1-yl)-3,7-dimethyl-4-oxo-4H-pyrido[1,2-a]pyrimidin-9-yl)ethyl)amino)benzoic acid], the half-maximal inhibitory concentration (IC50) was 198 nM in assay [1] and greater than 10000 nM in assay [2].

For the molecule `Cc1cc([C@@H](C)Nc2ccccc2C(=O)O)c2nc(N3CC(F)(F)[C@H]3C)c(C)c(=O)n2c1` [Example 11-96, 2-(((R)-1-(2-((R)-3,3-difluoro-2-methylazetidin-1-yl)-3,7-dimethyl-4-oxo-4H-pyrido[1,2-a]pyrimidin-9-yl)ethyl)amino)benzoic acid], the IC50 was 159 nM in assay [1] and greater than 10000 nM in assay [2].

On to `Cc1cc([C@@H](C)Nc2ccccc2C(=O)O)c2nc(N3CC[C@H]3C(F)(F)F)c(C)c(=O)n2c1` [Example 11-97, 2-(((R)-1-(3,7-dimethyl-4-oxo-2-((S)-2-(trifluoromethyl)azetidin-1-yl)-4H-pyrido[1,2-a]pyrimidin-9-yl)ethyl)amino)benzoic acid], for which the concentration for half-maximal inhibition (IC50) in assay [1] is 309 nM; in assay [2], greater than 10000 nM.

Regarding `Cc1cc([C@@H](C)Nc2ccccc2C(=O)O)c2nc(N3CC[C@@H]3C(F)(F)F)c(C)c(=O)n2c1` [Example 11-98, 2-(((R)-1-(3,7-dimethyl-4-oxo-2-((R)-2-(trifluoromethyl)azetidin-1-yl)-4H-pyrido[1,2-a]pyrimidin-9-yl)ethyl)amino)benzoic acid], the concentration for half-maximal inhibition (IC50) was 473 nM in assay [1] and greater than 10000 nM in assay [2].

On to `Cc1cc([C@@H](C)Nc2ccccc2C(=O)O)c2nc(NC3CCC3)c(C)c(=O)n2c1` [Example 11-99, (R)-2-((1-(2-(cyclobutylamino)-3,7-dimethyl-4-oxo-4H-pyrido[1,2-a]pyrimidin-9-yl)ethyl)amino)benzoic acid], for which the IC50 in assay [1] was 652 nM; in assay [2], greater than 10000 nM.

As to `Cc1cc([C@@H](C)Nc2ccccc2C(=O)O)c2nc(N3CC[C@H]3C)c(C)c(=O)n2c1` [Example 11-100, 2-(((R)-1-(3,7-dimethyl-2-((R)-2-methylazetidin-1-yl)-4-oxo-4H-pyrido[1,2-a]pyrimidin-9-yl)ethyl)amino)benzoic acid], the half-inhibitory concentration (IC50) in assay [1] is 225 nM; in assay [2], greater than 10000 nM.

For the molecule `Cc1cc([C@@H](C)Nc2ccccc2C(=O)O)c2nc(N3CC[C@@H]3C)c(C)c(=O)n2c1` [Example 11-101, 2-(((R)-1-(3,7-dimethyl-2-((S)-2-methylazetidin-1-yl)-4-oxo-4H-pyrido[1,2-a]pyrimidin-9-yl)ethyl)amino)benzoic acid], the IC50 in assay [1] was 180 nM; in assay [2], greater than 10000 nM.

`Cc1cc([C@@H](C)Nc2ccccc2C(=O)O)c2nc(N3CC4(C3)CC4(F)F)c(C#N)c(=O)n2c1` [Example 11-102, (R)-2-((1-(3-cyano-2-(1,1-difluoro-5-azaspiro[2.3]hexan-5-yl)-7-methyl-4-oxo-4H-pyrido[1,2-a]pyrimidin-9-yl)ethyl)amino)benzoic acid]: the half-maximal inhibitory concentration (IC50) in assay [1] is 130 nM; in assay [2], greater than 10000 nM.

With `Cc1cc([C@@H](C)Nc2ccccc2C(=O)O)c2nc(N3CC4(C3)CC4(F)F)c(C)c(=O)n2c1` [Example 11-103, (R)-2-((1-(2-(1,1-difluoro-5-azaspiro[2.3]hexan-5-yl)-3,7-dimethyl-4-oxo-4H-pyrido[1,2-a]pyrimidin-9-yl)ethyl)amino)benzoic acid], the IC50 was 475 nM in assay [1] and greater than 10000 nM in assay [2].

Turning to `Cc1cc([C@@H](C)Nc2ccccc2C(=O)O)c2nc(N3CC(C(F)F)C3)c(C#N)c(=O)n2c1` [Example 11-104, (R)-2-((1-(3-cyano-2-(3-(difluoromethyl)azetidin-1-yl)-7-methyl-4-oxo-4H-pyrido[1,2-a]pyrimidin-9-yl)ethyl)amino)benzoic acid], the concentration for half-maximal inhibition (IC50) in assay [1] is 306 nM; in assay [2] it was greater than 10000 nM.

As for `Cc1cc([C@@H](C)Nc2ccccc2C(=O)O)c2nc(N3CC(C(F)F)C3)c(C)c(=O)n2c1` [Example 11-105, (R)-2-((1-(2-(3-(difluoromethyl)azetidin-1-yl)-3,7-dimethyl-4-oxo-4H-pyrido[1,2-a]pyrimidin-9-yl)ethyl)amino)benzoic acid], the IC50 in assay [1] is 255 nM; in assay [2] it was greater than 10000 nM.

Regarding `Cc1cc([C@@H](C)Nc2ccccc2C(=O)O)c2nc(N3CC(C(F)(F)F)C3)c(C#N)c(=O)n2c1` [Example 11-106, (R)-2-((1-(3-cyano-7-methyl-4-oxo-2-(3-(trifluoromethyl)azetidin-1-yl)-4H-pyrido[1,2-a]pyrimidin-9-yl)ethyl)amino)benzoic acid], the IC50 is 117 nM in assay [1] and greater than 10000 nM in assay [2].

The record behind these values is patent publication US20260078120A1, “SUBSTITUTED PYRIDOPYRIMIDINONES” (MIRATI THERAPEUTICS, INC., priority 2022, published 2026).
